Laboratory results as given in US20130288964A1, “Use of peptides for promoting wound healing” (priority 2008, published 2013).
Read-outs that look alike come from different tables or passages of the source. Where no end group is shown, it is not given here.

What was measured:
[1] = system: human buccal epithelial cell line TR146; assay: In vitro wound healing (scratch wound closure) experiments; assay type: cell-based; details: for Wound closure rel. clos. ± SD: closure approx. 16 h after wounding relative to negative control, synthetic peptides in SFM, * significant
Experimental: The human buccal epithelial cell line TR146 (Rupniak et al; J Natl Cancer Inst. 1985 October; 75(4):621-35) was kindly provided by Cancer Research UK. Cells were grown in Dulbecco's modified Eagle medium with 4.5 g/l glucose (Invitrogen), 10% FCS (HyClone) and […] penicillin, […] streptomycin, and 250 ng/ml amphotericinB (Antibiotic antimyotic solution, Sigma,), at 37° C., 95% humidity and 5% CO2. Cells were maintained until near confluence and then briefly treated with 0.25% trypsin-EDTA lx (Invitrogen) to detach them, counted in a hepacytometer and seeded into new flasks or multi-well plates at the required cell density of about 1.5×10×5 cells/well.
Wound assays were performed as previously described (Matthay et al., 1993, J Cell Sci. 106 (Pt 3):869-78). In brief, cells were grown in 12-well plates until confluence, and then were serum deprived for 24 hours in keratinocyte serum free medium (SFM (Invitrogen)). In each well a scratch was made in the cellular monolayer using a sterile tip. The wounded monolayer was washed with SFM to remove cellular debris, and the following conditions were applied: • (i) Whole saliva and salivary secretions applied in 30% (v/v) in SFM. As a negative control 30% (v/v) saliva buffer was used. • (ii) (ii) rhEGF (Invitrogen) as a positive control • (iii) rp-HPLC fractions containing salivary proteins; • (iv) synthetic peptides: the experiments with isolated proteins and synthetic peptides were performed in full SFM.
The width of the wound area was determined microscopically immediately after wound creation and at approximately 16 hours after wounding. The relative closure was calculated by relating the closure to that of the negative control.
For inhibitor studies; directly after wounding cells were exposed to inhibitors of ERK1/2 (U0126, 5 μM, LC Laboratories), EGFR (AG1478, 1 μM, Calbiochem), and p38 MAPK (SB203580, 5 μM; LC Laboratories). Experiments were done in quadruplicate and analyzed using One-way ANOVA to determine significance with additional LSD post hoc test, P<0.05 was considered significant.

epithelial cells = assay: Internalization of FITC labeled histatin in epithelial cells (microscopy); assay type: cell-based, human; details: FITC labeled histatin incubated two hours (data not shown)
Experimental: Microscope: Leica DM IL PLAN 4-40x magnification, 0.5 lens; camera: Leica DFC320; and acquisition software: Leica IM500. Images were quantified using Adobe Photoshop CS3. Additionally, brightness/contrast levels of the co-localization studies were altered with Adobe Photoshop CS3. FITC labeled histatin was incubated with the cells for two hours. PI was added to check for membrane disruptive dependent internalization. 100 mM Azide was used for 1 hour. Cells were trypsinized as described above. Co-localization studies were performed using Mitotracker (Invitrogen) and Lysotracker (Invitrogen) following manufacturer's instructions. In Candida Histatin 5 is internalized and associates with the energized mitochondrion. Given the abovementioned discrepancy between C. albicans and epithelial cells we were very interested whether histatins become internalized and where in the cells they accumulate. […] NaN3 inhibits the function of cytochrome c oxidase by binding irreversibly to the heme cofactor. Thus, NaN3 treatment lead us to conclude that the internalization energy dependent. […] Which, in addition to the stereo-specificity, is indicating a receptor mediated process. We used mitochondria and acidic lysosome specific markers to elucidate histatin's fate once it is internalized

[2] = Candicidal activity LC50 ± SD
Experimental: 2.3 Potency of Histatin induced wound closure, stereo-specificity of Histatin 2, candidacidal activities of the different histatins. Next the potency of the different Histatins in both wound healing as their candidacidal activities was studied. Histatins are known for their antimicrobial activity.
We tested synthesized Histatins 1, 2, 3, 5 and the enantiomer of Histatin 2 (designated D-Histatin 2) on wound closure and candidacidal activities. In the test concentrations of 1, 5, 10, 30 and 50 μg/ml of the peptides were tested.

Molecule | Wound closure rel. clos. ± SD [1] | induction of wound closure ([1]; synthesized peptides, 1-50 μg/ml) | optimal concentration for wound closure ([1]; tested at 1, 5, 10, 30 and 50 μg/ml) [µg/mL] | internalization into epithelial cells (epithelial cells) | CC50 ([2]; 1 mM PPB) [nM] | CC50 ([2]; SFM) [nM] | relative wound closure ([1]; peptide concentration 1*10-3 μM, 1 = no peptide added (FIG. 4)) | induction of wound closure ([1]; EGF 5 ng/ml) | induced wound closure with EGF receptor blocked ([1]; EGFR inhibitor AG1478 1 μM) | MAPK pathway dependence of induced wound closure ([1]; inhibitors U0126 5 μM (ERK1/2), SB203580 5 μM (p38 MAPK), FIG. 2)
CC(C)C[C@H](NC(=O)[C@H](Cc1ccc(O)cc1)NC(=O)[C@H](CC(N)=O)NC(=O)[C@H](CO)NC(=O)[C@H](CCCNC(=N)N)NC(=O)[C@H](Cc1ccc(O)cc1)NC(=O)CNC(=O)[C@H](CCCNC(=N)N)NC(=O)[C@H](Cc1c[nH]cn1)NC(=O)[C@H](CO)NC(=O)[C@H](Cc1c[nH]cn1)NC(=O)[C@H](Cc1c[nH]cn1)NC(=O)[C@H](CCCCN)NC(=O)[C@H](CCC(=O)O)NC(=O)[C@H](Cc1c[nH]cn1)NC(=O)[C@H](Cc1ccccc1)NC(=O)[C@H](CCCCN)NC(=O)[C@H](CCCNC(=N)N)NC(=O)[C@H](CCCCN)NC(=O)[C@H](Cc1ccc(O)cc1)NC(=O)CNC(=O)[C@H](Cc1c[nH]cn1)NC(=O)[C@H](Cc1c[nH]cn1)NC(=O)[C@H](CCCNC(=N)N)NC(=O)[C@H](CCCCN)NC(=O)[C@H](C)NC(=O)[C@H](Cc1c[nH]cn1)NC(=O)[C@H](CO)NC(=O)[C@@H](N)CC(=O)O)C(=O)N[C@@H](Cc1ccc(O)cc1)C(=O)N[C@@H](CC(=O)O)C(=O)N[C@@H](CC(N)=O)C(=O)O [Histatin 3] | 1.21 ± 0.12* | induce wound closure | 30 to 50 | are internalized | 1100 ± 100 | > 100000 |  |  |  | 
C-HST1: cyclic peptide having the amino acid sequence according to SEQ. ID. NO. 4, Histatin 1 (DSHEKRHHGYRRKFHEKHHSHREFPFYGDYGSNYLYDN; also: cyclic (type and places not given here)) |  |  |  |  |  |  | 1.5 |  |  | 
EGF: epidermal growth factor; rhEGF (Invitrogen) as a positive control | 1.41 ± 0.12* |  |  |  |  |  |  | able to induce wound closure | abolished the effect | p38^MAPK dependent
